Test results from US20260022142A1, “MACROCYCLIC IMMUNOMODULATORS” (Bristol-Myers Squibb Company, priority 2022, published 2026).
Numbered stars: 1 amine (or outer) side, 2 acyl side, 3 side chain; on linkers, the order of the positions; unused ones are H or OH. Bridge positions count the residues as written; N and C are the ends. Square brackets hold non-standard residues; d marks the D form. Peptide text beside a SMILES is read from it. * marks the point of attachment. Phe(3-CF3) = N[C@@H](Cc1cccc(C(F)(F)F)c1)C(=O)O; Phe(4-COOH) = N[C@@H](Cc1ccc(C(=O)O)cc1)C(=O)O; Bip = N[C@@H](Cc1ccc(-c2ccccc2)cc1)C(=O)O; NH(CH2)14COOH = O=C(O)CCCCCCCCCCCCCCN*; Phe(3-Me) = Cc1cccc(C[C@H](N)C(=O)O)c1; Phe(4-F) = N[C@@H](Cc1ccc(F)cc1)C(=O)O; βAsp = O=C(O)[C@H](CC(=O)[*:2])N[*:1]; Val(3-OH) = CC(C)(O)[C@H](N)C(=O)O; hArg = N=C(N)NCCCC[C@H](N)C(=O)O; 4Pal = N[C@@H](Cc1ccncc1)C(=O)O; Cha = N[C@@H](CC1CCCCC1)C(=O)O; Cit = NC(=O)NCCC[C@H](N)C(=O)O; 12Ado = NCCCCCCCCCCCC(=O)O; Carboxymethyl = O=C(O)C*; Orn = NCCC[C@H](N)C(=O)O; Pra = C#CC[C@H](N)C(=O)O; Aun = NCCCCCCCCCCC(=O)O; Dab = NCC[C@H](N)C(=O)O; Dap = NC[C@H](N)C(=O)O; AEEA = NCCOCCOCC(=O)O

Molecular target: T1, PD-1/PD-L1 interaction (PE-labeled human PD-L1-Ig binding to Jurkat cell line over-expressing human PD-1) (Homo sapiens, UniProt Q15116)
T1 construct: expressed in transfected cells; host or cells: Jurkat
Experiment: Jurkat-PD-1 Cell Binding High-Content Screening Assay (CBA)
Assay type: cell-based
Settings: Jurkat cell line over-expressing human PD-1; PE-labeled PD-L1-Ig 20 nM final; read-out: Jurkat hPD1-PDL1 IC50
In short: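 Jurkat cells stably over-expressing human PD-1 were seeded in DMEM with 10% fetal calf serum and pre-incubated with compound for 2 h at 37° C. PE-labeled human PD-L1-Ig was then added at 20 nM final for 1 hour, after which cells were fixed with paraformaldehyde, Hoechst-stained and imaged by high-content microscopy.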

T1 sequence (Q15116 25-288): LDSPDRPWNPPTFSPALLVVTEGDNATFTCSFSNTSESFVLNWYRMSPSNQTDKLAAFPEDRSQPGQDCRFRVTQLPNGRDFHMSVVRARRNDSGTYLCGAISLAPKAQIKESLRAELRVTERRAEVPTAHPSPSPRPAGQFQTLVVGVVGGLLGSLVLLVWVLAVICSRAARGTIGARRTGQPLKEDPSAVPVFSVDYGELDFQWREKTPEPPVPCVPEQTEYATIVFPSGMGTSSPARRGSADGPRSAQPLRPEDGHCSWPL

Row | Compound | IC50 [nM]
1 | CC(C)C[C@H]1NC(=O)[C@H](CCCN)NC(=O)[C@H](C(C)C)NC(=O)[C@H](Cc2ccc(-c3ccccc3)cc2)NC(=O)[C@H](C(C)C)NC(=O)[C@H](Cc2c[nH]c3ccccc23)NC(=O)[C@H](CC(=O)O)NC(=O)[C@H](Cc2ccc(OCC(=O)O)cc2)NC(=O)[C@H](Cc2ccc(OCC(=O)O)cc2)NC(=O)CSC[C@@H](C(=O)N[C@@H](CCN)C(=O)NCCCCCCCCCCC(=O)O)NC(=O)[C@H](CCCNC(=N)N)NC(=O)[C@H](C(C)C)NC(=O)[C@H](CC2CCCCC2)NC(=O)[C@H](CCN)NC1=O [Compound 2556] ({CH2CO}-Y(Carboxymethyl)Y(Carboxymethyl)DWV[Bip]V[Orn][dL][Dab][Cha]VRC[Dab][Aun]-OH; thioether N-14) | 43.7
2 | Cc1cccc(C[C@@H]2NC(=O)[C@H](CC(=O)O)NC(=O)[C@H](Cc3ccc(OCC(=O)O)cc3)NC(=O)[C@H](CN)NC(=O)CSC[C@@H](C(=O)N[C@@H](CCCCN)C(=O)N[C@@H](CO)C(=O)NCCCCCCCCCCC(=O)O)NC(=O)[C@H](CCCN)NC(=O)[C@H](C(C)C)NC(=O)[C@H](CC3CCCCC3)NC(=O)[C@H](CCN)NC(=O)[C@@H](CC(C)C)NC(=O)[C@H](CCCN)NC(=O)[C@H](Cc3ccc(O)cc3)NC(=O)[C@H](Cc3ccc(-c4ccccc4)cc3)NC(=O)[C@H](C(C)C)NC2=O)c1 [Compound 3608] ({CH2CO}-[Dap]Y(Carboxymethyl)D[Phe(3-Me)]V[Bip]Y[Orn][dL][Dab][Cha]V[Orn]CKS[Aun]-OH; thioether N-14) | 52.7
3 | Cc1cccc(C[C@@H]2NC(=O)[C@H](CC(=O)O)NC(=O)[C@H](Cc3ccc(C(=O)O)cc3)NC(=O)[C@H](C)NC(=O)CSC[C@@H](C(=O)N[C@@H](CCN)C(=O)NCCOCCOCC(=O)N[C@@H](CCC(=O)O)C(=O)N[C@@H](CC(=O)NCCOCCOCC(=O)NCCCCCCCCCCCCCCC(=O)O)C(=O)O)NC(=O)[C@H](Cc3cnc[nH]3)NC(=O)[C@H](C(C)(C)O)NC(=O)[C@H](CC3CCCCC3)NC(=O)[C@H](CCN)NC(=O)[C@@H](CC(C)C)NC(=O)[C@H](CCCN)NC(=O)[C@H](Cc3ccc(C(=O)O)cc3)NC(=O)[C@H](Cc3ccc(-c4ccccc4)cc3)NC(=O)[C@H](Cc3ccc(C(=O)O)cc3)NC2=O)c1 [Compound 3884] ({CH2CO}-A[Phe(4-COOH)]D[Phe(3-Me)][Phe(4-COOH)][Bip][Phe(4-COOH)][Orn][dL][Dab][Cha][Val(3-OH)]HC[Dab][AEEA]E[βAsp][AEEA]-{NH(CH2)14COOH}; thioether N-14) | 147
4 | Cc1cccc(C[C@@H]2NC(=O)[C@H](CC(=O)O)NC(=O)[C@H](Cc3ccc(OCC(=O)O)cc3)NC(=O)[C@H](Cc3ccncc3)NC(=O)CSC[C@@H](C(=O)N[C@@H](CCN)C(=O)NCCCCCCCCCCC(=O)O)NC(=O)[C@H]([C@@H](C)O)NC(=O)[C@H](C(C)C)NC(=O)[C@H](CC3CCCCC3)NC(=O)[C@H](CCN)NC(=O)[C@@H](CC(C)C)NC(=O)[C@H](CCCN)NC(=O)[C@H](Cc3ccc(O)cc3)NC(=O)[C@H](Cc3ccc(-c4ccccc4)cc3)NC(=O)[C@H](C(C)C)NC2=O)c1 [Compound 2744] ({CH2CO}-[4Pal]Y(Carboxymethyl)D[Phe(3-Me)]V[Bip]Y[Orn][dL][Dab][Cha]VTC[Dab][Aun]-OH; thioether N-14) | 72.5
5 | Cc1cccc(C[C@@H]2NC(=O)[C@H](CC(=O)O)NC(=O)[C@H](Cc3ccc(OCC(=O)O)cc3)NC(=O)[C@H](Cc3ccncc3)NC(=O)CSC[C@@H](C(=O)N[C@@H](CCN)C(=O)NCCCCCCCCCCCCCCC(=O)O)NC(=O)[C@H](CO)NC(=O)[C@H](C(C)(C)O)NC(=O)[C@H](CC3CCCCC3)NC(=O)[C@H](CCN)NC(=O)[C@@H](CC(C)C)NC(=O)[C@H](CCCN)NC(=O)[C@H](Cc3ccc(OCC(=O)O)cc3)NC(=O)[C@H](Cc3ccc(-c4ccccc4)cc3)NC(=O)[C@H](Cc3ccc(OCC(=O)O)cc3)NC2=O)c1 [Compound 2227] ({CH2CO}-[4Pal]Y(Carboxymethyl)D[Phe(3-Me)]Y(Carboxymethyl)[Bip]Y(Carboxymethyl)[Orn][dL][Dab][Cha][Val(3-OH)]SC[Dab]-{NH(CH2)14COOH}; thioether N-14) | 204
6 | CC[C@H](C)[C@@H]1NC(=O)[C@H](Cc2ccc(-c3ccccc3)cc2)NC(=O)[C@H](C(C)C)NC(=O)[C@H](Cc2c[nH]c3ccccc23)NC(=O)[C@H](CC(=O)O)NC(=O)[C@H](Cc2ccc(OCC(=O)O)cc2)NC(=O)[C@H](Cc2ccncc2)NC(=O)CSC[C@@H](C(=O)N[C@@H](CCCNC(=N)N)C(=O)NCCOCCOCC(=O)NCCCCCCCCCCC(=O)O)NC(=O)[C@H]([C@@H](C)O)NC(=O)[C@H](C(C)C)NC(=O)[C@H](CC(C)C)NC(=O)[C@H](CCN)NC(=O)[C@@H](CC(C)C)NC(=O)[C@H](CCCN)NC1=O [Compound 1161] ({CH2CO}-[4Pal]Y(Carboxymethyl)DWV[Bip]I[Orn][dL][Dab]LVTCR[AEEA][Aun]-OH; thioether N-14) | 25.3
7 | CC(=O)NCCCC[C@@H]1NC(=O)[C@H](C(C)(C)O)NC(=O)[C@H](CC2CCCCC2)NC(=O)[C@H](CCN)NC(=O)[C@@H](CC(C)C)NC(=O)[C@H](CCCN)NC(=O)[C@H](Cc2ccc(C(=O)O)cc2)NC(=O)[C@H](Cc2ccc(-c3ccccc3)cc2)NC(=O)[C@H](Cc2ccc(C(=O)O)cc2)NC(=O)[C@H](Cc2cccc(C(F)(F)F)c2)NC(=O)[C@H](CC(=O)O)NC(=O)[C@H](Cc2ccc(OCC(=O)O)cc2)NC(=O)[C@H](Cc2cnc[nH]2)NC(=O)CSC[C@@H](C(=O)N[C@@H](CCN)C(=O)NCCOCCOCC(=O)N[C@@H](CC(=O)N[C@@H](CC(=O)O)C(=O)NCCCCCCCCCCCCCCC(=O)O)C(=O)O)NC1=O [Compound 3888] ({CH2CO}-HY(Carboxymethyl)D[Phe(3-CF3)][Phe(4-COOH)][Bip][Phe(4-COOH)][Orn][dL][Dab][Cha][Val(3-OH)]K(Ac)C[Dab][AEEA][βAsp]D-{NH(CH2)14COOH}; thioether N-14) | 116

Compounds with a lower IC50, results first:

Row | IC50 [nM] | Compound
8 | 7.7 | Cc1cccc(C[C@@H]2NC(=O)[C@H](CC(=O)O)NC(=O)[C@H](Cc3ccc(OCC(=O)O)cc3)NC(=O)[C@H](CN)NC(=O)CSC[C@@H](C(=O)N[C@@H](CCN)C(=O)NCCOCCOCC(=O)NCCCCCCCCCCC(=O)O)NC(=O)[C@H](CCCN)NC(=O)[C@H](C(C)C)NC(=O)[C@H](CC3CCCCC3)NC(=O)[C@H](CCN)NC(=O)[C@@H](CC(C)C)NC(=O)[C@H](CCCN)NC(=O)[C@H](CCCNC(N)=O)NC(=O)[C@H](Cc3ccc(-c4ccccc4)cc3)NC(=O)[C@H](Cc3ccc(O)cc3)NC2=O)c1 [Compound 2580] ({CH2CO}-[Dap]Y(Carboxymethyl)D[Phe(3-Me)]Y[Bip][Cit][Orn][dL][Dab][Cha]V[Orn]C[Dab][AEEA][Aun]-OH; thioether N-14)
9 | 6.5 | CC(=O)NCCCC[C@@H]1NC(=O)[C@H](Cc2ccc(-c3ccccc3)cc2)NC(=O)[C@H](C(C)C)NC(=O)[C@H](Cc2cccc(C)c2)NC(=O)[C@H](CC(=O)O)NC(=O)[C@H](Cc2ccc(OCC(=O)O)cc2)NC(=O)[C@H](CN)NC(=O)CSC[C@@H](C(=O)N[C@@H](CCN)C(=O)N[C@@H](CO)C(=O)NCCCCCCCCCCCC(=O)O)NC(=O)[C@H](CCCN)NC(=O)[C@H](C(C)C)NC(=O)[C@H](CC2CCCCC2)NC(=O)[C@H](CCN)NC(=O)[C@@H](CC(C)C)NC(=O)[C@H](CCCN)NC1=O [Compound 3590] ({CH2CO}-[Dap]Y(Carboxymethyl)D[Phe(3-Me)]V[Bip]K(Ac)[Orn][dL][Dab][Cha]V[Orn]C[Dab]S[12Ado]-OH; thioether N-14)
10 | 12.2 | Cc1cccc(C[C@@H]2NC(=O)[C@H](CC(=O)O)NC(=O)[C@H](Cc3ccc(OCC(=O)O)cc3)NC(=O)[C@H](CCCCNC(=N)N)NC(=O)CSC[C@@H](C(=O)N[C@@H](CCN)C(=O)NCCCCCCCCCCC(=O)O)NC(=O)[C@H](CCCCN)NC(=O)[C@H](C(C)C)NC(=O)[C@H](CC3CCCCC3)NC(=O)[C@H](CCN)NC(=O)[C@@H](CC(C)C)NC(=O)[C@H](CCCN)NC(=O)[C@H](C(C)C)NC(=O)[C@H](Cc3ccc(-c4ccccc4)cc3)NC(=O)[C@H](C(C)C)NC2=O)c1 [Compound 3260] ({CH2CO}-[hArg]Y(Carboxymethyl)D[Phe(3-Me)]V[Bip]V[Orn][dL][Dab][Cha]VKC[Dab][Aun]-OH; thioether N-14)
11 | 16.9 | Cc1cccc(C[C@@H]2NC(=O)[C@H](CC(=O)O)NC(=O)[C@H](Cc3ccc(OCC(=O)O)cc3)NC(=O)[C@H](CN)NC(=O)CSC[C@@H](C(=O)N[C@@H](CCN)C(=O)NCCOCCOCC(=O)NCCCCCCCCCCC(=O)O)NC(=O)[C@H](CCCN)NC(=O)[C@H](C(C)C)NC(=O)[C@H](CC3CCCCC3)NC(=O)[C@H](CCN)NC(=O)[C@@H](CC(C)C)NC(=O)[C@H](CCCN)NC(=O)[C@H](Cc3ccc(F)cc3)NC(=O)[C@H](Cc3ccc(-c4ccccc4)cc3)NC(=O)[C@H](Cc3ccc(O)cc3)NC2=O)c1 [Compound 2049] ({CH2CO}-[Dap]Y(Carboxymethyl)D[Phe(3-Me)]Y[Bip][Phe(4-F)][Orn][dL][Dab][Cha]V[Orn]C[Dab][AEEA][Aun]-OH; thioether N-14)
12 | 20 | C#CC[C@H](NC(=O)COCCOCCNC(=O)[C@H](CN)NC(=O)[C@@H]1CSCC(=O)N[C@@H](Cc2ccncc2)C(=O)N[C@@H](Cc2ccc(OCC(=O)O)cc2)C(=O)N[C@@H](CC(=O)O)C(=O)N[C@@H](Cc2c[nH]c3ccccc23)C(=O)N[C@@H](C(C)C)C(=O)N[C@@H](Cc2ccc(-c3ccccc3)cc2)C(=O)N[C@@H]([C@@H](C)CC)C(=O)N[C@@H](CCCN)C(=O)N[C@H](CC(C)C)C(=O)N[C@@H](CCN)C(=O)N[C@@H](CC(C)C)C(=O)N[C@@H](C(C)C)C(=O)N[C@@H]([C@@H](C)O)C(=O)N1)C(=O)NCCCCCCCCCCC(=O)O [Compound 1205] ({CH2CO}-[4Pal]Y(Carboxymethyl)DWV[Bip]I[Orn][dL][Dab]LVTC[Dap][AEEA][Pra][Aun]-OH; thioether N-14)
